Test results reported in US20070049564A1 (Wyeth, priority 2005, published 2007).
In brackets after ≈: the same amount, converted by molar mass. Like-named read-outs stand apart in the source and are kept apart here.

Tests used:
[1] = system: c. albicans GC 3066; test: MIC, broth microdilution
[2] = system: E. coli; test: Range of MIC for E. coli strains; details: Escherichia coli
[3] = system: E. coli GC 6465; test: MIC, broth microdilution; details: Escherichia coli
[4] = system: S. aureus GC 6467; test: MIC, broth microdilution; details: Staphylococcus aureus
[5] = system: E. coli GC 1073; test: MIC, broth microdilution; details: Escherichia coli
[6] = system: E. coli GC 2231; test: MIC, broth microdilution; details: Escherichia coli
[7] = system: E. coli GC 2233; test: MIC, broth microdilution; details: Escherichia coli
[8] = system: S. aureus GC 4536; test: MIC, broth microdilution; details: Staphylococcus aureus
[9] = system: E. faecium GC 4556; test: MIC, broth microdilution; details: Enterococcus faecium
[10] = system: E. faecalis GC 2242; test: MIC, broth microdilution; details: Enterococcus faecalis
[11] = system: S. aureus GC 1079; test: MIC, broth microdilution; details: Staphylococcus aureus
[12] = system: S. aureus GC 2216; test: MIC, broth microdilution; details: Staphylococcus aureus
[13] = system: S. aureus GC 6466; test: MIC, broth microdilution; details: Staphylococcus aureus
[14] = system: Staph.; test: Range of MIC for Staph. strains, including MRSA; details: Staphylococcus aureus
[15] = system: E. faecium GC 2243; test: MIC, broth microdilution; details: Enterococcus faecium
[16] = system: S. aureus GC 6469; test: MIC, broth microdilution; details: Staphylococcus aureus
Protocol: (§1) Antimicrobial susceptibility testing. The in vitro activities of the antibiotics are determined by the broth microdilution method as recommended by the National Committee for Clinical Laboratory Standards (NCCLS) (1). Mueller-Hinton II broth (MHBII)(BBL Cockeysville, Md.) is the medium employed in the testing procedures. Microtiter plates containing serial dilutions of each antimicrobial agent are inoculated with each organism to yield the appropriate density (10^5 CFU/ml) in a 100 μl final volume. The plates are incubated for 18-22 hours at 35° C. in ambient air.
(§2) Representative compounds were first incubated in mouse serum for an hour prior to the in vitro testing against a panel of selected gram-positive and gram-negative bacteria strains. All compounds were also pre-incubated in water for an hour prior to testing as control.

[17] = system: E. coli GC 2270; test: MIC, broth microdilution; details: Escherichia coli
Protocol: as §1
Representative compounds were first incubated in mouse serum for an hour prior to the in vitro testing against a panel of selected gram-positive and gram-negative bacteria strains. All compounds were also pre-incubated in water for an hour prior to testing as control. Representative compounds of Formula I were incubated in human serum prior to MIC determination.

[18] = system: E. coli GC 4560; test: MIC, broth microdilution; details: Escherichia coli
[19] = system: E. coli GC 2235; test: MIC, broth microdilution; details: Escherichia coli
[20] = system: S. typhimurium GC 2172; test: MIC, broth microdilution; details: Salmonella enterica, TYPHIMURIUM
Protocol: as §1, §2

**Q.** Which results are given for `CN(C)c1cc(NC(=O)CN(C(=O)OCOC(=O)c2ccc(C(C)(C)C)cc2)C(C)(C)C)c(O)c2c1C[C@H]1C[C@H]3[C@H](N(C)C)C(O)=C(C(N)=O)C(=O)[C@@]3(O)C(O)=C1C2=O` [Example 43, ({[(2-{[(5aR,6aS,7S,10aS)-9-(aminocarbonyl)-4,7-bis(dimethylamino)-1,8,10a,11-tetrahydroxy-10,12-dioxo-5,5a,6,6a,7,10,10a,12-octahydrotetracen-2-yl]amino}-2-oxoethyl)(tert-butyl)amino]carbonyl}oxy)methyl 4-tert-butylbenzoate]?
**A.** MIC ([1]; Candida albicans, GC3066, read-out: MINIMAL INHIBITORY CONCENTRATION MIC): > 64 µg/mL; MINIMAL INHIBITORY CONCENTRATION MIC ([1]; pre-incubated in Human Serum): >64 UG/ML; MINIMAL INHIBITORY CONCENTRATION MIC ([1]; pre-incubated in Mouse Serum): >64 UG/ML; MIC ([2]; 20 h, read-out: Range of MIC, E. coli (Mouse Serum)): 0.25 to 2 µg/mL (≈ 0.305 to 2.44 µM); MIC ([2]; read-out: Minimum inhibitory concentration (MIC), E. coli (Human Serum)): > 64 µg/mL; MIC ([2]; read-out: Minimum inhibitory concentration (MIC), E. coli (water)): > 64 µg/mL; MIC ([2]; read-out: Range of MIC, E. coli (Water)): > 64 µg/mL; MIC ([3]; GC6465, read-out: MINIMAL INHIBITORY CONCENTRATION MIC, pre-incubated in Human Serum): > 64 µg/mL; MIC ([3]; GC6465, read-out: MINIMAL INHIBITORY CONCENTRATION MIC, pre-incubated in Mouse Serum): 2 µg/mL (≈ 2.44 µM); MIC ([3]; GC6465, read-out: MINIMAL INHIBITORY CONCENTRATION MIC, pre-incubated in Water): > 64 µg/mL; MIC ([4]; GC6467, read-out: MINIMAL INHIBITORY CONCENTRATION MIC, pre-incubated in Human Serum): 32 µg/mL (≈ 39 µM); MIC ([4]; GC6467, read-out: MINIMAL INHIBITORY CONCENTRATION MIC, pre-incubated in Mouse Serum): 0.5 µg/mL (≈ 0.61 µM); MIC ([4]; GC6467, read-out: MINIMAL INHIBITORY CONCENTRATION MIC, pre-incubated in Water): > 64 µg/mL; MIC ([5]; GC1073, read-out: MINIMAL INHIBITORY CONCENTRATION MIC, pre-incubated in Human Serum): > 64 µg/mL; MIC ([5]; GC1073, read-out: MINIMAL INHIBITORY CONCENTRATION MIC, pre-incubated in Mouse Serum): 0.5 µg/mL (≈ 0.61 µM); MIC ([5]; GC1073, read-out: MINIMAL INHIBITORY CONCENTRATION MIC, pre-incubated in Water): > 64 µg/mL; MIC ([6]; GC2231, read-out: MINIMAL INHIBITORY CONCENTRATION MIC, pre-incubated in Human Serum): > 64 µg/mL; MIC ([6]; GC2231, read-out: MINIMAL INHIBITORY CONCENTRATION MIC, pre-incubated in Mouse Serum): 0.5 µg/mL (≈ 0.61 µM); MIC ([6]; GC2231, read-out: MINIMAL INHIBITORY CONCENTRATION MIC, pre-incubated in Water): > 64 µg/mL; MIC ([7]; GC2233, read-out: MINIMAL INHIBITORY CONCENTRATION MIC, pre-incubated in Human Serum): > 64 µg/mL; MIC ([7]; GC2233, read-out: MINIMAL INHIBITORY CONCENTRATION MIC, pre-incubated in Mouse Serum): 0.5 µg/mL (≈ 0.61 µM); MIC ([7]; GC2233, read-out: MINIMAL INHIBITORY CONCENTRATION MIC, pre-incubated in Water): > 64 µg/mL; MIC ([8]; GC4536, read-out: MINIMAL INHIBITORY CONCENTRATION MIC, pre-incubated in Human Serum): 16 µg/mL (≈ 19.5 µM); MIC ([8]; GC4536, read-out: MINIMAL INHIBITORY CONCENTRATION MIC, pre-incubated in Mouse Serum): 1 µg/mL (≈ 1.22 µM); MIC ([8]; GC4536, read-out: MINIMAL INHIBITORY CONCENTRATION MIC, pre-incubated in Water): 32 µg/mL (≈ 39 µM); MIC ([9]; GC4556, read-out: MINIMAL INHIBITORY CONCENTRATION MIC, pre-incubated in Human Serum): 8 µg/mL (≈ 9.76 µM); MIC ([9]; GC4556, read-out: MINIMAL INHIBITORY CONCENTRATION MIC, pre-incubated in Mouse Serum): 0.5 µg/mL (≈ 0.61 µM); MIC ([9]; GC4556, read-out: MINIMAL INHIBITORY CONCENTRATION MIC, pre-incubated in Water): 16 µg/mL (≈ 19.5 µM); MIC ([10]; GC2242, read-out: MINIMAL INHIBITORY CONCENTRATION MIC, pre-incubated in Human Serum): 4 µg/mL (≈ 4.88 µM); MIC ([10]; GC2242, read-out: MINIMAL INHIBITORY CONCENTRATION MIC, pre-incubated in Mouse Serum): 0.5 µg/mL (≈ 0.61 µM); MIC ([10]; GC2242, read-out: MINIMAL INHIBITORY CONCENTRATION MIC, pre-incubated in Water): 16 µg/mL (≈ 19.5 µM); MIC ([11]; GC1079, read-out: MINIMAL INHIBITORY CONCENTRATION MIC, pre-incubated in Human Serum): 32 µg/mL (≈ 39 µM); MIC ([11]; GC1079, read-out: MINIMAL INHIBITORY CONCENTRATION MIC, pre-incubated in Mouse Serum): 1 µg/mL (≈ 1.22 µM); MIC ([11]; GC1079, read-out: MINIMAL INHIBITORY CONCENTRATION MIC, pre-incubated in Water): 64 µg/mL (≈ 78.1 µM); MIC ([12]; GC2216, read-out: MINIMAL INHIBITORY CONCENTRATION MIC, pre-incubated in Human Serum): 32 µg/mL (≈ 39 µM); MIC ([12]; GC2216, read-out: MINIMAL INHIBITORY CONCENTRATION MIC, pre-incubated in Mouse Serum): 0.5 µg/mL (≈ 0.61 µM); MIC ([12]; GC2216, read-out: MINIMAL INHIBITORY CONCENTRATION MIC, pre-incubated in Water): 64 µg/mL (≈ 78.1 µM); MIC ([13]; GC6466, read-out: MINIMAL INHIBITORY CONCENTRATION MIC, pre-incubated in Human Serum): 16 µg/mL (≈ 19.5 µM); MIC ([13]; GC6466, read-out: MINIMAL INHIBITORY CONCENTRATION MIC, pre-incubated in Mouse Serum): 0.5 µg/mL (≈ 0.61 µM); MIC ([13]; GC6466, read-out: MINIMAL INHIBITORY CONCENTRATION MIC, pre-incubated in Water): 64 µg/mL (≈ 78.1 µM); MIC ([14]; MRSA, read-out: Range of MIC, Staph (Mouse Serum)): 0.5 to 2 µg/mL (≈ 0.61 to 2.44 µM); MIC ([14]; read-out: Minimum inhibitory concentration (MIC), Staph (Human Serum)): 4 to 64 µg/mL (≈ 4.88 to 78.1 µM); MIC ([15]; GC2243, read-out: MINIMAL INHIBITORY CONCENTRATION MIC, pre-incubated in Human Serum): 0.25 µg/mL (≈ 0.305 µM); MIC ([15]; GC2243, read-out: MINIMAL INHIBITORY CONCENTRATION MIC, pre-incubated in Mouse Serum): 0.12 µg/mL (≈ 0.146 µM); MIC ([15]; GC2243, read-out: MINIMAL INHIBITORY CONCENTRATION MIC, pre-incubated in Water): 0.25 µg/mL (≈ 0.305 µM); MIC ([16]; GC6469, read-out: MINIMAL INHIBITORY CONCENTRATION MIC, pre-incubated in Human Serum): 32 µg/mL (≈ 39 µM); MIC ([16]; GC6469, read-out: MINIMAL INHIBITORY CONCENTRATION MIC, pre-incubated in Mouse Serum): 1 µg/mL (≈ 1.22 µM); MIC ([16]; GC6469, read-out: MINIMAL INHIBITORY CONCENTRATION MIC, pre-incubated in Water): > 64 µg/mL; MIC ([17]; GC2270, read-out: MINIMAL INHIBITORY CONCENTRATION MIC, pre-incubated in Human Serum): > 64 µg/mL; MIC ([17]; GC2270, read-out: MINIMAL INHIBITORY CONCENTRATION MIC, pre-incubated in Mouse Serum): 0.25 µg/mL (≈ 0.305 µM); MIC ([17]; GC2270, read-out: MINIMAL INHIBITORY CONCENTRATION MIC, pre-incubated in Water): > 64 µg/mL; MIC ([18]; GC4560, read-out: MINIMAL INHIBITORY CONCENTRATION MIC, pre-incubated in Human Serum): 16 µg/mL (≈ 19.5 µM); MIC ([18]; GC4560, read-out: MINIMAL INHIBITORY CONCENTRATION MIC, pre-incubated in Mouse Serum): < 0.06 µg/mL; MIC ([18]; GC4560, read-out: MINIMAL INHIBITORY CONCENTRATION MIC, pre-incubated in Water): 32 µg/mL (≈ 39 µM); MIC ([19]; GC2235, read-out: MINIMAL INHIBITORY CONCENTRATION MIC, pre-incubated in Human Serum): > 64 µg/mL; MIC ([19]; GC2235, read-out: MINIMAL INHIBITORY CONCENTRATION MIC, pre-incubated in Mouse Serum): 0.25 µg/mL (≈ 0.305 µM); MIC ([19]; GC2235, read-out: MINIMAL INHIBITORY CONCENTRATION MIC, pre-incubated in Water): > 64 µg/mL; MIC ([20]; read-out: MINIMAL INHIBITORY CONCENTRATION MIC, pre-incubated in Human Serum): > 64 µg/mL; MIC ([20]; read-out: MINIMAL INHIBITORY CONCENTRATION MIC, pre-incubated in Mouse Serum): 2 µg/mL (≈ 2.44 µM); MIC ([20]; read-out: MINIMAL INHIBITORY CONCENTRATION MIC, pre-incubated in Water): > 64 µg/mL
